Laboratory results: a melting point compilation (Tetko et al.)

settings: a range is the spread between reports

Point of comparison: CCCC(C)(C)C, melting point -124 °C. Against it:
- CC1(C(=O)O)CCC(C(=O)O)C1(C)C (stereo not given) — higher, 187 to 189 °C
- CC(=O)n1ccnc1 — higher, 101 to 102 °C
- Cc1ccc(F)cc1[N+](=O)[O-] — higher, 26 to 27 °C
- CC12CCC(C(=O)C1=O)C2(C)C (stereo not given) — higher, 199 to 200 °C
- CC1(C)OC(=O)CC(=O)O1 — higher, 94 to 98 °C
- CCCCCCCCCCC1CCCCC1 — higher, -2 to -1.7 °C
- CCCCC#N — higher, -96.2 to -96 °C
- O=[N+]([O-])c1ccco1 — higher, 30 to 31 °C
- S=C=Nc1cccc2ccccc12 — higher, 56 to 58 °C
- Cc1cccc(C(C)C)c1 — higher, -64 to -63.7 °C
- CCCCCCN — higher, -23 to -19 °C
- Cc1cc(O)c(C(C)C)cc1C1(c2cc(C(C)C)c(O)cc2C)OC(=O)c2ccccc21 — higher, 250 to 253 °C
- c1cc(-c2ccncc2)ccn1 — higher, 111 to 113 °C
- CC(C)CC(N)=O — higher, 136 to 137 °C
- N#Cc1cc(Cl)cc(Cl)c1 — higher, 64 to 66 °C
- CC(C)(c1ccc(O)cc1)c1ccc(O)cc1 — higher, 153 to 156 °C
- Fc1cc(F)c(F)cc1F — higher, 4 to 4.5 °C
- Cc1ccnc(C)c1 — higher, -64 to -60 °C
- CC(C)c1cccc(C(C)C)c1 — higher, -63.1 to -63 °C
- ClCCOc1ccccc1 — higher, 24 to 28 °C
- COc1cccc(OC)c1C(C)=O — higher, 69 to 70 °C
- Cc1cccc(C)c1I — higher, 11 to 11.2 °C
- O=C1c2ccccc2C(=O)c2c(Cl)cccc21 — higher, 159 to 163 °C
- O=C(O)C(Cl)Br (stereo not given) — higher, 27 to 31.5 °C
- NC(=O)C(F)(F)F — higher, 72.5 to 73 °C
- OCC1OC(OC2(CO)OC(CO)C(O)C2O)C(O)C(O)C1O (stereo not given) — higher, 186 to 188 °C
- CC(C)(C)C — higher, -17 to -16.4 °C
- Oc1ccc(Sc2ccc(O)cc2)cc1 — higher, 153 to 155 °C
- O=C1OC(c2ccc(O)cc2)(c2ccc(O)cc2)c2ccccc21 — higher, 260 to 262 °C
- c1ccc(-c2ncc[nH]2)cc1 — higher, 148 to 149 °C
- COc1cc(OC)cc(C(=O)O)c1 — higher, 184 to 186 °C
- Nc1cc([N+](=O)[O-])ccc1O — higher, 143 to 144 °C
- COC(=O)c1cc(Cl)ccc1O — higher, 46 to 50 °C
- O=C(O)COc1cccc(Cl)c1 — higher, 108 to 110 °C
- CCC(=O)c1ccc(Cl)cc1 — higher, 35 to 37.3 °C
- C=C=C(C)C — higher, -114 °C
- Oc1ccccc1-c1ccccc1 — higher, 56 to 60 °C
- Cc1n[nH]c(=O)[nH]c1=O — higher, 211 to 213 °C
- CC(C)C(=O)c1ccccc1 — higher, -1.3 to 1 °C
- CC1(C)C2CC[C@@]1(C)C(=O)C2 — higher, 178 to 180 °C
- Nc1c(Cl)c(Cl)c(Cl)c(Cl)c1Cl — higher, 232 to 235 °C
- CC=CC=CCO — higher, 30.5 to 31 °C
- CC(=O)CC(C)C — higher, -84 to -80 °C
- O=C(O)c1cccc(Cl)c1[N+](=O)[O-] — higher, 237 to 238 °C
- OCc1cccc(Oc2ccccc2)c1 — higher, 6 to 10 °C
- ICCI — higher, 80 to 83 °C
- O=C(O)c1cc(-c2ccc(F)cc2F)ccc1O — higher, 210 to 216 °C
- O=C(c1ccccc1)c1c(F)c(F)c(F)c(F)c1F — higher, 37 to 38 °C
- Cc1ccc(C)c(C)c1C — higher, -6.2 to -6 °C
- Cc1cccs1 — higher, -63.4 to -63 °C
- OCC(O)CO — higher, 17.8 to 18.2 °C
- Clc1ccc(SSc2ccc(Cl)cc2)cc1 — higher, 68 to 73 °C
- CC(=O)OO — higher, -0.2 to 0.1 °C
- Ic1cccc(I)c1 — higher, 36 to 40.4 °C
- C#CC(C)(C)O — higher, 2.6 to 3 °C
- c1ccc(Cc2ccncc2)cc1 — higher, 10 to 12.4 °C
- COc1ccc(OC)c([N+](=O)[O-])c1 — higher, 71 to 72.5 °C
- O=[N+]([O-])c1cccc(-c2ccccc2)c1 — higher, 59 to 62 °C
- O=C(O)c1cc(Cl)ccc1Cl — higher, 152 to 156 °C
- Clc1cc(Cl)c(Cl)nc1Cl — higher, 90.5 to 91 °C
- C=Cc1cccc([N+](=O)[O-])c1 — higher, -10 to -5 °C
- Cc1cc(C)c(C(=O)O)c(C)c1 — higher, 152 to 154 °C
- CS(=O)(=O)c1ccccc1 — higher, 86 to 87 °C
- Cc1cccc(C(C)(C)C)c1 — higher, -41.4 to -41 °C
